Assay results published in PubChem BioAssay AID2060609 (Molecular Pharmacology Branch, DTP, NCI, 2025).
Where “and” joins values, the source holds several entries; their conditions need not be identical. Equal values may be shown once. Each block holds one compound with its values, some of them ahead of it.

Test system: 855422-203-R-J1-PDC complex spheroids, viability
Assay: Anticancer human tumor 855422-203-R-J1-PDC patient-derived bladder carcinoma cell line growth inhibition [CLK]
Details: for viability, T/C: stronger effect = lower value
Description: A high-throughput screen of multi-cell type tumor spheroids was designed to identify active combinations of […] and targeted small molecules. Complex spheroids include a stromal component modeled by human endothelial cells (HUVEC) and fibroblasts modeled by human mesenchymal stem cells (MSCs). The concentration ranges selected for each drug and investigational agent were based upon clinically achievable concentrations if the clinical Cmax of the agent was known.
Compounds. The drugs and investigational agents: cirtuvivint (SM08502; NSC835563), CC-671 (NSC850746), vemurafenib (NSC761431), tapotoclax (NSC804041), sotorasib (NSC818433), adagrasib (NSC831453), MRTX-1133 (NSC836407), BAY2416964 (NSC825713), copanlisib (NSC816437), inavolisib (NSC800729), abemaciclib (NSC768073), osimertinib (NSC779217), entinostat (NSC756642), eltanexor (KPT-8602, NSC794443), venetoclax (NSC766270), ceralasertib (NSC777638), bortezomib (NSC756655), olaparib (NSC753686), talazoparib (NSC767125), alisertib (NSC759677), peposertib (NSC802822), gemcitabine (NSC613327), 5-fluorouracil (NSC19893), SN-38 (NSC673596), oxaliplatin (NSC266046), paclitaxel (NSC125973), and doxorubicin (NSC123127), were obtained from the National Cancer Institute (NCI) Developmental Therapeutics Program Chemical Repository. The FDA-approved anticancer drug set is available from the Developmental Therapeutics Program at https://dtp.cancer.gov/organization/dscb/obtaining/available plates.htm. […] The stock solutions were prepared in dimethyl sulfoxide (DMSO, Sigma-Aldrich, St. Louis, MO, cat. D2650), except for the platinum complexes which were prepared in saline (Quality Biological, Gaithersburg, MD, cat. 114-055-101), at 800-fold the tested concentration and stored at -70 degrees C prior to their use. All drugs and investigational agents were tested over a range starting from a high concentration at or near the clinical Cmax and decreasing in half-log increments. If the clinical Cmax for an agent had not been determined, the highest concentration tested was 10 microM.
Cell Culture. All cells were maintained in an incubator at 37 degrees C and 5% CO2 with 95% humidity. The PDC lines were cultured according to standard operating procedures established by the NCI PDMR. Briefly, all PDCs were thawed and cultured in Matrigel-coated flasks prepared with a working solution of 1X Ham's F-12 nutrient mix, without supplementation (Invitrogen, Waltham, MA, cat. 11765054), 100 U/mL penicillin-streptomycin (Invitrogen, cat. 15140122), and 2.5% Matrigel (Corning Inc., Corning, NY, cat. 354248) for the first three passages. The 947758-054-R-J2-PDC line was cultured in 6B/Colon 1A media, which includes advanced DMEM/F-12 (Thermo Fisher Scientific, cat. 12634028), 10 mM HEPES (Thermo Fisher Scientific, cat. 15630080), 1X GlutaMAX supplement (Thermo Fisher Scientific, cat. 35050061), 0.1 mg/mL primocin (InvivoGen, cat. ant-pm-2), 10% defined fetal bovine serum, heat inactivated (HyClone Laboratories Inc., cat. SH30070.03HI), 1.25 mM N-Acetyl-L-cysteine (Sigma-Aldrich, cat. A9165), 10 mM nicotinamide (Sigma-Aldrich, cat. N0636), 1X B-27 supplement (Thermo Fisher Scientific, cat. 17504044), 1X N-2 supplement (Thermo Fisher Scientific, cat. 17502048), and 10 microM Y-27632 dihydrochloride (Tocris Bioscience, cat. 1254). The 876862-298-R-J1-PDC was cultured in 6E media, which includes all 6B/Colon 1A media components plus 50% L-WRN conditioned media (ATCC, cat. CRL-3276), 50 ng/mL recombinant human EGF recombinant protein (hEGF; Thermo Fisher Scientific, cat. PHG0311), 10 ng/mL recombinant human fibroblast growth factor 10 (hGFG-10; PeproTech, cat. 100-26), 1 ng/mL recombinant human fibroblast growth factor 2 (hFGF-2; PeproTech, cat. 100-18B), and 1 µM prostaglandin E2 (PGE2; Tocris, cat. 2296). The 227483-062-R1-J1-PDC line was cultured in Panc media, containing all 6E components except hFGF-2, with the addition of 500 nM SB-431542 (Selleckchem, cat. S1067) and 10 nM gastrin (Tocris, cat. 3006). […]

[1] = curve of first compound, second compound 0.0316 µM
[2] = curve of first compound, second compound 0.1 µM
[3] = curve of first compound, second compound 0.316 µM
[4] = curve of first compound, second compound 1 µM
[5] = curve of first compound, second compound 3.16 µM
[6] = curve of first compound, second compound 10 µM
[7] = second compound 0.0316 µM, first compound 0.0316 µM
[8] = second compound 0.0316 µM, first compound 0.1 µM
[9] = second compound 0.0316 µM, first compound 0.316 µM
[10] = second compound 0.0316 µM, first compound 1 µM
[11] = second compound 0.0316 µM, first compound 3.16 µM
[12] = second compound 0.0316 µM, first compound 10 µM
[13] = second compound 0.1 µM, first compound 0.0316 µM
[14] = second compound 0.1 µM, first compound 0.1 µM
[15] = second compound 0.1 µM, first compound 0.316 µM
[16] = second compound 0.1 µM, first compound 1 µM
[17] = second compound 0.1 µM, first compound 3.16 µM
[18] = second compound 0.1 µM, first compound 10 µM
[19] = second compound 0.316 µM, first compound 0.0316 µM
[20] = second compound 0.316 µM, first compound 0.1 µM
[21] = second compound 0.316 µM, first compound 0.316 µM
[22] = second compound 0.316 µM, first compound 1 µM
[23] = second compound 0.316 µM, first compound 3.16 µM
[24] = second compound 0.316 µM, first compound 10 µM
[25] = second compound 1 µM, first compound 0.0316 µM
[26] = second compound 1 µM, first compound 0.1 µM
[27] = second compound 1 µM, first compound 0.316 µM
[28] = second compound 1 µM, first compound 1 µM
[29] = second compound 1 µM, first compound 3.16 µM
[30] = second compound 1 µM, first compound 10 µM
[31] = second compound 3.16 µM, first compound 0.0316 µM
[32] = second compound 3.16 µM, first compound 0.1 µM
[33] = second compound 3.16 µM, first compound 0.316 µM
[34] = second compound 3.16 µM, first compound 1 µM
[35] = second compound 3.16 µM, first compound 3.16 µM
[36] = second compound 3.16 µM, first compound 10 µM
[37] = second compound 10 µM, first compound 0.0316 µM
[38] = second compound 10 µM, first compound 0.1 µM
[39] = second compound 10 µM, first compound 0.316 µM
[40] = second compound 10 µM, first compound 1 µM
[41] = second compound 10 µM, first compound 3.16 µM
[42] = second compound 10 µM, first compound 10 µM
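Note: spheroids exposed to drugs for seven days before readout.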
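Throughout, for viability, T/C: 100% = DMSO vehicle control wells.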

IC50 (compound alone, run of 07/31/2023): 181 nM [middle of 9 runs]
Compound: CN1CCN(c2cc(C(=O)Nc3cc4cc(-c5cnn(C)c5)ccc4cn3)ccn2)CC1
viability, T/C (compound 0.1 µM): 94% [middle of 12 runs]
viability, T/C (compound 0.316 µM): 9.83% [middle of 12 runs]
viability, T/C (compound 1 µM): 0.34% [middle of 11 runs]
viability, T/C (compound 3.16 µM): 0.57% [middle of 11 runs]
viability, T/C (compound 10 µM): 0.34% [middle of 11 runs]

IC50 (compound alone, run of 08/01/2023): 142 nM [middle of 11 runs]
Compound: CNC(=O)c1ccc(Nc2nc(OC3CCCC3)c3c(-c4ccc5nc(C)oc5c4)c[nH]c3n2)c(OC)c1
viability, T/C (compound 0.316 µM): 23.8% [middle of 12 runs]
viability, T/C (compound 1 µM): 22.5% [middle of 12 runs]
viability, T/C (compound 3.16 µM): 21.2% [middle of 12 runs]
viability, T/C (compound 10 µM): 20.1% [middle of 11 runs]

IC50 (curve of compound): 5.61 µM and 4.9 µM
Compound: COc1ccc([C@@H](O)c2cc(-c3ncnc4cc(N5CCOCC5)ccc34)c(F)cc2Cl)nn1
viability, T/C (compound 0.0316 µM): 95.2% and 115%
viability, T/C (compound 0.1 µM): 98.5% and 95.4%
viability, T/C (compound 0.316 µM): 105% and 107%
viability, T/C (compound 1 µM): 103% and 85.6%
viability, T/C (compound 3.16 µM): 64.8% and 64.9%
viability, T/C (compound 10 µM): 35.1% and 26.4%

Compound: C=CC(=O)N1CCN(c2nc(=O)n(-c3c(C)ccnc3C(C)C)c3nc(-c4c(O)cccc4F)c(F)cc23)C(C)C1 (centres undefined) + CN1CCN(c2cc(C(=O)Nc3cc4cc(-c5cnn(C)c5)ccc4cn3)ccn2)CC1
IC50 [1]: > 10 µM
IC50 [2]: > 10 µM
IC50 [3]: < 0.0316 µM
IC50 [4]: < 0.0316 µM
IC50 [5]: < 0.0316 µM
IC50 [6]: < 0.0316 µM
viability, T/C [7]: 99%
viability, T/C [8]: 110%
viability, T/C [9]: 134%
viability, T/C [10]: 138%
viability, T/C [11]: 169%
viability, T/C [12]: 119%
viability, T/C [13]: 85.5%
viability, T/C [14]: 92.3%
viability, T/C [15]: 94.7%
viability, T/C [16]: 116%
viability, T/C [17]: 113%
viability, T/C [18]: 82.1%
viability, T/C [19]: 12.1%
viability, T/C [20]: 18.2%
viability, T/C [21]: 17.9%
viability, T/C [22]: 17.6%
viability, T/C [23]: 17.6%
viability, T/C [24]: 7.91%
viability, T/C [25]: 0.24%
viability, T/C [26]: 0.27%
viability, T/C [27]: 0.3%
viability, T/C [28]: 0.42%
viability, T/C [29]: 0.52%
viability, T/C [30]: 2.45%
viability, T/C [31]: 0.88%
viability, T/C [32]: 0.76%
viability, T/C [33]: 2.22%
viability, T/C [34]: 1.37%
viability, T/C [35]: 1.55%
viability, T/C [36]: 1.14%
viability, T/C [37]: 0.53%
viability, T/C [38]: 0.49%
viability, T/C [39]: 0.4%
viability, T/C [40]: 0.89%
viability, T/C [41]: 0.88%
viability, T/C [42]: 1.04%

Compound: CCCS(=O)(=O)Nc1ccc(F)c(C(=O)c2c[nH]c3ncc(-c4ccc(Cl)cc4)cc23)c1F + CN1CCN(c2cc(C(=O)Nc3cc4cc(-c5cnn(C)c5)ccc4cn3)ccn2)CC1
IC50 [1]: 4.79 µM
IC50 [2]: 5.02 µM
IC50 [3]: < 0.0316 µM
IC50 [4]: < 0.0316 µM
IC50 [5]: < 0.0316 µM
IC50 [6]: < 0.0316 µM
viability, T/C [7]: 83.9%
viability, T/C [8]: 88.1%
viability, T/C [9]: 103%
viability, T/C [10]: 106%
viability, T/C [11]: 76.5%
viability, T/C [12]: 3.42%
viability, T/C [13]: 74.2%
viability, T/C [14]: 85.5%
viability, T/C [15]: 87.9%
viability, T/C [16]: 86.5%
viability, T/C [17]: 81.8%
viability, T/C [18]: 2.76%
viability, T/C [19]: 6.38%
viability, T/C [20]: 8.19%
viability, T/C [21]: 9.52%
viability, T/C [22]: 7.73%
viability, T/C [23]: 6.35%
viability, T/C [24]: 1.15%
viability, T/C [25]: 0.16%
viability, T/C [26]: 0.18%
viability, T/C [27]: 0.46%
viability, T/C [28]: 0.19%
viability, T/C [29]: 0.19%
viability, T/C [30]: 0.08%
viability, T/C [31]: 0.34%
viability, T/C [32]: 0.68%
viability, T/C [33]: 0.32%
viability, T/C [34]: 0.46%
viability, T/C [35]: 1.09%
viability, T/C [36]: 0.77%
viability, T/C [37]: 0.23%
viability, T/C [38]: 0.51%
viability, T/C [39]: 0.21%
viability, T/C [40]: 0.35%
viability, T/C [41]: 0.5%
viability, T/C [42]: 0.29%

Compound: COC1C=CCC(C)C(C)S(=O)(=O)NC(=O)c2ccc3c(c2)N(CC2CCC21)CC1(CCCc2cc(Cl)ccc21)CO3 (centres undefined) + CN1CCN(c2cc(C(=O)Nc3cc4cc(-c5cnn(C)c5)ccc4cn3)ccn2)CC1
IC50 [1]: 5.97 µM
IC50 [2]: 4.81 µM
IC50 [3]: < 0.0316 µM
IC50 [4]: < 0.0316 µM
IC50 [5]: < 0.0316 µM
IC50 [6]: < 0.0316 µM
viability, T/C [7]: 89.7%
viability, T/C [8]: 104%
viability, T/C [9]: 101%
viability, T/C [10]: 105%
viability, T/C [11]: 110%
viability, T/C [12]: 7.64%
viability, T/C [13]: 73.2%
viability, T/C [14]: 79.6%
viability, T/C [15]: 78.4%
viability, T/C [16]: 77.5%
viability, T/C [17]: 74.4%
viability, T/C [18]: 7.3%
viability, T/C [19]: 5.49%
viability, T/C [20]: 8.06%
viability, T/C [21]: 8.27%
viability, T/C [22]: 8.14%
viability, T/C [23]: 9.01%
viability, T/C [24]: 3.13%
viability, T/C [25]: 0.17%
viability, T/C [26]: 0.15%
viability, T/C [27]: 0.14%
viability, T/C [28]: 0.18%
viability, T/C [29]: 0.12%
viability, T/C [30]: 0.64%
viability, T/C [31]: 0.29%
viability, T/C [32]: 0.46%
viability, T/C [33]: 0.42%
viability, T/C [34]: 0.42%
viability, T/C [35]: 0.31%
viability, T/C [36]: 0.15%
viability, T/C [37]: 0.31%
viability, T/C [38]: 0.16%
viability, T/C [39]: 0.31%
viability, T/C [40]: 0.39%
viability, T/C [41]: 0.95%
viability, T/C [42]: 0.32%
